Assays:
[1] = system: Senna tora (sickle senna); experiment: Field trial, herbicide control of Senna tora, with and without simulated rain; format: in vivo; conditions: 30 days after treatment, 720 g ae/ha
Excerpt: Statistical calculations were done on the means.

[2] = system: Poa pratensis (meadowgrass or Kentucky blue grass); experiment: Greenhouse trial, sulfonylurea herbicides for grass weed control; format: in vivo; conditions: mean of 3 replicates ± SD
Procedure: Greenhouse trials were carried out where the effect of ADS-1 on the efficacy of the sulfonylurea herbicides nicosulfuron (4.2% SC Motivell from BASF) and rimsulfuron (25% WG Cato from Dupont) for grass weed control was tested. Seed of the grass Poa pratensis (meadowgrass or Kentucky blue grass) was densely sown in pots and grown for 6 weeks until reaching a height of about 25 cm. The herbicides were tank mixed with the adjuvant ADS-1 at doses given also in the table. […] Researchers trained in the art have knowledge about such technology, and about the method of assessment.

## O=C(O)CNCP(=O)(O)O [Glyphosate, glyphosate]
[1]; with 4 mm rain aftertreatment
  Control (%) of Senna tora: 75.0 d %
[1]; without rain aftertreatment
  Control (%) of Senna tora: 96.0 a %

## COc1cc(OC)nc(NC(=O)NS(=O)(=O)c2ncccc2C(=O)N(C)C)n1 [Nicosulfuron, nicosulfuron]
[2]; Table 9, dose/ha 25 ml Motivell
  % Control: 87 ± 3%

## CCS(=O)(=O)c1cccnc1S(=O)(=O)NC(=O)Nc1nc(OC)cc(OC)n1 [Rimsulfuron, rimsulfuron]
[2]; Table 10, dose/ha 10 g Cato
  % Control: 43 ± 6%

Source: patent US20070213226A1, “AGROCHEMICAL COMPOSITIONS COMPRISING ALKYLENEDIOL-MODIFIED POLYSILOXANES” (priority 2006, published 2007)
